Experiments:
SK-BR-3 = test: Antiproliferative activity against human estrogen receptor negative SKBr3 cells overexpressing Her2 after 72 hrs; format: functional, cell-based; settings: SK-BR-3, 72 h
MCF7 = test: Antiproliferative activity against human estrogen receptor positive MCF7 cells after 72 hrs; format: functional, cell-based; settings: MCF7, 72 h

Molecule `Cc1cc(C(=O)Nc2ccc3c(c2)OCCO3)c(C)cc1C(=O)Nc1ccc2c(c1)OCCO2` has an IC50 (SK-BR-3) of over 100 µM and an IC50 (MCF7) of over 100 µM.

In the case of `O=C(Nc1cccc(Cl)c1)c1cccc(C(=O)Nc2cccc(Cl)c2)c1`, the IC50 (SK-BR-3) is reported as over 100 µM and the IC50 (MCF7) is reported as 56.5 µM.

For `O=C(Nc1ccccc1F)c1cccc(C(=O)Nc2ccccc2F)c1`, the IC50 (SK-BR-3) was over 100 µM and the IC50 (MCF7) was over 100 µM.

Work on `O=C(Nc1ccc2c(c1)OCCO2)c1cc(Cl)c(C(=O)Nc2ccc3c(c2)OCCO3)cc1Cl` yielded an IC50 (SK-BR-3) of over 100 µM and an IC50 (MCF7) of over 100 µM.

`O=C(Nc1ccc2c(c1)OCCO2)c1cccc(C(=O)Nc2ccc3c(c2)OCCO3)c1` was tested, and the IC50 (SK-BR-3) was over 100 µM and the IC50 (MCF7) was over 100 µM.

With `O=C(Nc1ccc2c(c1)OCCO2)c1ccnc(C(=O)Nc2ccc3c(c2)OCCO3)c1` the IC50 (SK-BR-3) was over 100 µM and the IC50 (MCF7) was over 100 µM.

`O=C(Nc1cc(Cl)cc(Cl)c1)c1ccnc(C(=O)Nc2cc(Cl)cc(Cl)c2)c1` was tested, and the IC50 (SK-BR-3) was 10.5 µM and the IC50 (MCF7) was 4.2 µM.

`O=C(Nc1cc(Cl)cc(Cl)c1)c1cc(Cl)c(C(=O)Nc2cc(Cl)cc(Cl)c2)cc1Cl` was tested, and the IC50 (SK-BR-3) was over 100 µM and the IC50 (MCF7) was over 100 µM.

For `Cc1c(O)ccc2cc(NC(=O)c3cccc(C(=O)Nc4cc5ccc(O)c(C)c5oc4=O)n3)c(=O)oc12`, the IC50 (SK-BR-3) was over 100 µM and the IC50 (MCF7) was over 100 µM.

For `Cc1c(O)ccc2cc(NC(=O)c3cccc(C(=O)Nc4cc5ccc(O)c(C)c5oc4=O)c3)c(=O)oc12`, the IC50 (SK-BR-3) was over 100 µM and the IC50 (MCF7) was over 100 µM.

Work on `Cc1cc(C(=O)Nc2cc(Cl)cc(Cl)c2)c(C)cc1C(=O)Nc1cc(Cl)cc(Cl)c1` yielded an IC50 (SK-BR-3) of over 100 µM and an IC50 (MCF7) of over 100 µM.

With `O=C(Nc1cc(Cl)cc(Cl)c1)c1ccc(C(=O)Nc2cc(Cl)cc(Cl)c2)cc1` the IC50 (SK-BR-3) was over 100 µM and the IC50 (MCF7) was over 100 µM.

Molecule `Cc1c(O)ccc2cc(NC(=O)c3ccnc(C(=O)Nc4cc5ccc(O)c(C)c5oc4=O)c3)c(=O)oc12` has an IC50 (SK-BR-3) of over 100 µM and an IC50 (MCF7) of over 100 µM.

With `O=C(CCCCCCC(=O)Nc1cc(Cl)cc(Cl)c1)Nc1cc(Cl)cc(Cl)c1` the IC50 (SK-BR-3) was over 100 µM and the IC50 (MCF7) was over 100 µM.

Molecule `O=C(Nc1ccc(F)c(F)c1)c1ccnc(C(=O)Nc2ccc(F)c(F)c2)c1` has an IC50 (SK-BR-3) of over 100 µM and an IC50 (MCF7) of over 100 µM.

Molecule `O=C(Nc1ccc2c(c1)OCCOCCOCCOCCO2)c1ccc(C(=O)Nc2ccc3c(c2)OCCOCCOCCOCCO3)nc1` has an IC50 (SK-BR-3) of 4.5 µM and an IC50 (MCF7) of 7.2 µM.

`O=C(Nc1ccc(F)c(F)c1)c1cccc(C(=O)Nc2ccc(F)c(F)c2)c1` showed an IC50 (SK-BR-3) of over 100 µM.

Work on `O=C(Nc1cc(F)ccc1F)c1cccc(C(=O)Nc2cc(F)ccc2F)n1` yielded an IC50 (SK-BR-3) of over 100 µM and an IC50 (MCF7) of over 100 µM.

With `O=C(Nc1cc(F)ccc1F)c1cccc(C(=O)Nc2cc(F)ccc2F)c1` the IC50 (SK-BR-3) was over 100 µM and the IC50 (MCF7) was over 100 µM.

In the case of `O=C(Nc1cc(F)cc(F)c1)c1cccc(C(=O)Nc2cc(F)cc(F)c2)n1`, the IC50 (SK-BR-3) is reported as over 100 µM and the IC50 (MCF7) is reported as over 100 µM.

In the case of `COc1cc(NC(=O)c2cccc(C(=O)Nc3cc(OC)cc(OC)c3)n2)cc(OC)c1`, the IC50 (SK-BR-3) is reported as over 100 µM and the IC50 (MCF7) is reported as 52.1 µM.

`O=C(Nc1ccc2c(c1)OCCO2)c1ccc(C(=O)Nc2ccc3c(c2)OCCO3)nc1` gave an IC50 (SK-BR-3) of over 100 µM and an IC50 (MCF7) of over 100 µM.

Molecule `O=C(NCc1ccc2c(c1)OCO2)c1ccc(C(=O)NCc2ccc3c(c2)OCO3)nc1` has an IC50 (SK-BR-3) of over 100 µM and an IC50 (MCF7) of over 100 µM.

`N#Cc1ccc(NC(=O)c2ccnc(C(=O)Nc3ccc(C#N)cc3)c2)cc1` showed an IC50 (SK-BR-3) of over 100 µM and an IC50 (MCF7) of over 100 µM.

`O=C(Nc1ccc2ccccc2c1)c1cccc(C(=O)Nc2ccc3ccccc3c2)c1` showed an IC50 (SK-BR-3) of 15.2 µM and an IC50 (MCF7) of 4.6 µM.

Work on `O=C(Nc1cc(F)cc(F)c1)c1ccc(C(=O)Nc2cc(F)cc(F)c2)nc1` yielded an IC50 (SK-BR-3) of over 100 µM and an IC50 (MCF7) of over 100 µM.

`COc1cc(NC(=O)c2ccc(C(=O)Nc3cc(OC)cc(OC)c3)nc2)cc(OC)c1` gave an IC50 (SK-BR-3) of 34.9 µM and an IC50 (MCF7) of 22.8 µM.

With `O=C(Nc1cc(F)ccc1F)c1ccc(C(=O)Nc2cc(F)ccc2F)nc1` the IC50 (SK-BR-3) was over 100 µM and the IC50 (MCF7) was over 100 µM.

`Cc1c(O)ccc2cc(NC(=O)c3ccc(C(=O)Nc4cc5ccc(O)c(C)c5oc4=O)nc3)c(=O)oc12` gave an IC50 (SK-BR-3) of over 100 µM and an IC50 (MCF7) of over 100 µM.

In the case of `O=C(Nc1ccc2ccccc2c1)c1ccc(C(=O)Nc2ccc3ccccc3c2)nc1`, the IC50 (SK-BR-3) is reported as over 100 µM and the IC50 (MCF7) is reported as over 100 µM.

`O=C(Nc1ccccc1F)c1ccc(C(=O)Nc2ccccc2F)nc1` was tested, and the IC50 (SK-BR-3) was over 100 µM and the IC50 (MCF7) was over 100 µM.

`O=C(Nc1ccccc1O)c1ccc(C(=O)Nc2ccccc2O)nc1` showed an IC50 (SK-BR-3) of over 100 µM and an IC50 (MCF7) of over 100 µM.

Molecule `Cc1cc(C)cc(NC(=O)c2ccc(C(=O)Nc3cc(C)cc(C)c3)nc2)c1` has an IC50 (SK-BR-3) of 104 µM and an IC50 (MCF7) of 16.3 µM.

With `O=C(Nc1cc(F)cc(F)c1)c1ccnc(C(=O)Nc2cc(F)cc(F)c2)c1` the IC50 (SK-BR-3) was over 100 µM and the IC50 (MCF7) was 14.7 µM.

Molecule `O=C(Nc1ccc(Cl)cc1O)c1ccc(C(=O)Nc2ccc(Cl)cc2O)nc1` has an IC50 (SK-BR-3) of over 100 µM and an IC50 (MCF7) of over 100 µM.

With `O=C(Nc1ccc(O)cc1)c1ccc(C(=O)Nc2ccc(O)cc2)nc1` the IC50 (SK-BR-3) was over 100 µM and the IC50 (MCF7) was over 100 µM.

`COc1cc(NC(=O)c2ccnc(C(=O)Nc3cc(OC)cc(OC)c3)c2)cc(OC)c1` showed an IC50 (SK-BR-3) of over 100 µM and an IC50 (MCF7) of over 100 µM.

In the case of `O=C(Nc1cccc(Cl)c1)c1ccc(C(=O)Nc2cccc(Cl)c2)nc1`, the IC50 (SK-BR-3) is reported as 28.3 µM and the IC50 (MCF7) is reported as 27.3 µM.

For `O=C(NCCc1ccc2c(c1)OCO2)c1ccc(C(=O)NCCc2ccc3c(c2)OCO3)nc1`, the IC50 (SK-BR-3) was over 100 µM and the IC50 (MCF7) was over 100 µM.

Molecule `O=C(Nc1ccc(F)c(F)c1)c1ccc(C(=O)Nc2ccc(F)c(F)c2)nc1` has an IC50 (SK-BR-3) of over 100 µM and an IC50 (MCF7) of over 100 µM.

`O=C(Nc1cccc(Cl)c1)c1ccnc(C(=O)Nc2cccc(Cl)c2)c1` was tested, and the IC50 (SK-BR-3) was 9 µM and the IC50 (MCF7) was 2.4 µM.

`O=C(Nc1ccccc1F)c1ccnc(C(=O)Nc2ccccc2F)c1` was tested, and the IC50 (SK-BR-3) was 87.7 µM and the IC50 (MCF7) was 40.4 µM.

`Cc1cc(C)cc(NC(=O)c2ccnc(C(=O)Nc3cc(C)cc(C)c3)c2)c1` gave an IC50 (SK-BR-3) of over 100 µM and an IC50 (MCF7) of over 100 µM.

Molecule `O=C(Nc1cc(F)cc(F)c1)c1cccc(C(=O)Nc2cc(F)cc(F)c2)c1` has an IC50 (SK-BR-3) of over 100 µM and an IC50 (MCF7) of over 100 µM.

In the case of `COc1cc(NC(=O)c2cccc(C(=O)Nc3cc(OC)cc(OC)c3)c2)cc(OC)c1`, the IC50 (SK-BR-3) is reported as over 100 µM and the IC50 (MCF7) is reported as over 100 µM.

`Cc1cc(C)cc(NC(=O)c2cccc(C(=O)Nc3cc(C)cc(C)c3)c2)c1` was tested, and the IC50 (SK-BR-3) was 12.2 µM and the IC50 (MCF7) was 2.1 µM.

Work on `O=C(Nc1ccc2c(c1)OCCO2)c1ccc(C(=O)Nc2ccc3c(c2)OCCO3)c([N+](=O)[O-])c1` yielded an IC50 (SK-BR-3) of over 100 µM and an IC50 (MCF7) of over 100 µM.

With `O=C(Nc1cc(Cl)cc(Cl)c1)c1ccc(C(=O)Nc2cc(Cl)cc(Cl)c2)c2ccccc12` the IC50 (SK-BR-3) was over 100 µM and the IC50 (MCF7) was over 100 µM.

`O=C(Nc1ccc2c(c1)OCCO2)c1cccc(C(=O)Nc2ccc3c(c2)OCCO3)n1` was tested, and the IC50 (SK-BR-3) was over 100 µM and the IC50 (MCF7) was 27.5 µM.

`O=C(Nc1cc(Cl)cc(Cl)c1)c1cccc(C(=O)Nc2cc(Cl)cc(Cl)c2)n1` showed an IC50 (SK-BR-3) of 16.3 µM and an IC50 (MCF7) of 10.2 µM.

With `O=C(Nc1ccc2c(c1)OCCO2)c1ccc(C(=O)Nc2ccc3c(c2)OCCO3)cc1` the IC50 (SK-BR-3) was over 100 µM and the IC50 (MCF7) was over 100 µM.

`O=C(Nc1ccc2c(c1)OCCOCCOCCOCCO2)c1cccc(C(=O)Nc2ccc3c(c2)OCCOCCOCCOCCO3)c1` gave an IC50 (SK-BR-3) of over 100 µM and an IC50 (MCF7) of over 100 µM.

For `O=C(Nc1cc(Cl)cc(Cl)c1)c1cccc(C(=O)Nc2cc(Cl)cc(Cl)c2)c1`, the IC50 (SK-BR-3) was 4.5 µM and the IC50 (MCF7) was 2.7 µM.

For `O=C(Nc1ccc2c(c1)OCO2)c1ccc(C(=O)Nc2ccc3c(c2)OCO3)nc1`, the IC50 (SK-BR-3) was over 100 µM and the IC50 (MCF7) was over 100 µM.

With `O=C(Nc1cc(Cl)cc(Cl)c1)c1ccc(C(=O)Nc2cc(Cl)cc(Cl)c2)nc1` the IC50 (SK-BR-3) was 2.3 µM and the IC50 (MCF7) was 4.1 µM.

For `O=C(NC1CCCCC1)c1ccc(C(=O)NC2CCCCC2)nc1`, the IC50 (SK-BR-3) was over 100 µM and the IC50 (MCF7) was over 100 µM.

In the case of `O=C(Nc1cc(F)ccc1F)c1ccnc(C(=O)Nc2cc(F)ccc2F)c1`, the IC50 (SK-BR-3) is reported as over 100 µM and the IC50 (MCF7) is reported as over 100 µM.

`Cc1cc(C)cc(NC(=O)c2cccc(C(=O)Nc3cc(C)cc(C)c3)n2)c1` was tested, and the IC50 (SK-BR-3) was over 100 µM and the IC50 (MCF7) was over 100 µM.

Molecule `O=C(Nc1ccc(F)c(F)c1)c1cccc(C(=O)Nc2ccc(F)c(F)c2)n1` has an IC50 (SK-BR-3) of over 100 µM and an IC50 (MCF7) of over 100 µM.

`O=C(Nc1ccc2ccccc2c1)c1ccnc(C(=O)Nc2ccc3ccccc3c2)c1` showed an IC50 (SK-BR-3) of over 100 µM and an IC50 (MCF7) of 81.8 µM.

With `O=C(Nc1ccc2c(c1)OCCO2)c1cnc(C(=O)Nc2ccc3c(c2)OCCO3)cn1` the IC50 (SK-BR-3) was over 100 µM and the IC50 (MCF7) was over 100 µM.

For `N#Cc1ccc(NC(=O)c2cccc(C(=O)Nc3ccc(C#N)cc3)c2)cc1`, the IC50 (SK-BR-3) was over 100 µM and the IC50 (MCF7) was over 100 µM.

For `O=C(CCCCCCC(=O)Nc1ccc2c(c1)OCCO2)Nc1ccc2c(c1)OCCO2`, the IC50 (SK-BR-3) was over 100 µM and the IC50 (MCF7) was over 100 µM.

With `O=C(Nc1ccc2c(c1)OCCO2)c1ccc(C(=O)Nc2ccc3c(c2)OCCO3)c2ccccc12` the IC50 (SK-BR-3) was over 100 µM and the IC50 (MCF7) was over 100 µM.

Work on `CO[C@H]1[C@H](OC(=O)c2ccc(C)[nH]2)[C@H](O)[C@@H](Oc2ccc3c(O)c(NC(=O)c4c[nH]c(C(=O)Nc5c(O)c6ccc(O[C@H]7OC(C)(C)[C@@H](OC)[C@H](OC(=O)c8ccc(C)[nH]8)[C@@H]7O)c(C)c6oc5=O)c4C)c(=O)oc3c2C)OC1(C)C` [COUMERMYCIN A1] yielded an IC50 (SK-BR-3) of 3.2 µM and an IC50 (MCF7) of 6.7 µM.

Source: ChEMBL document CHEMBL1146248, “Cytotoxic small molecule dimers and their inhibitory activity against human breast cancer cells” (Bioorg Med Chem Lett, 2007)
